Experimental data as given in PMC2774688, “Cellular Ser/Thr-Kinase Assays Using Generic Peptide Substrates” (Current Chemical Genomics, 2008).

Columns and labels:
CamK2δ = assay: CamK2δ/cSTKpep-1 cellular TR-FRET assay (transient, HEK 293); type: cell-based; conditions: 5min ionomycin treatment (1µM)
Experimental: HEK293 cells were transfected using Fugene 6 (Roche) at a density of 8000 cells/well in 384-well plates and a final transfection volume of 30μl. The amounts of kinase and substrate plasmids per well varied for each experiment and are specified in the figure legends. Cell lysis and detection of phosphorylated or total substrate levels was performed 48h post transfection by addition of 30μl detection buffer (50 mM Hepes pH 7.2, 0.1% BSA, 20mM EDTA, 0.8M KF, and 2% Triton) containing anti-FLAG XL665 (2ng/ul) and Eu-pSTK (0.18ng/μl) or Eu-pMEK1 (0.24ng/μl). For the relative determination of total substrate levels 30μl detection buffer was added per well containing anti-FLAG XL665 (2ng/μl) and Eu-cMyc (0.3ng/μl). Plates were incubated for 3-6h at room temperature and TR-FRET readings taken on Acquest, Analyst GT (Molecular Devices Corp.), Envision or Viewlux (Perkin Elmer) plate readers. […]
Fig. (8). Induction of CamK2δ activity. Transient transfection reactions were performed in 384-well plates as indicated. HEK 293 were reverse transfected with 50ng CamK2δ and 50ng (black bars) or 25ng (gray bars) cSTKpep-1. CamK2δ activity was induced through 5min ionomycin treatment (1µM) and p-cSTKpep-1 was quantified by TR-FRET.

B-Raf(V600E) [1] = molecular target: T1, B-Raf(V600E) (Homo sapiens, UniProt P15056, V600E); assay: B-Raf(V600E)/MEK1(WT) cellular TR-FRET assay (double stable HEK293 T-Rex cells); type: cell-based; conditions: MEK(WT) substrate, ~2h compound treatment, SD in parentheses (n=4-6); for IC50: 384-well
T1 construct: Full-length B-Raf wild-type (WT) and B-Raf(V600E) (NM_004333) cDNAs were subcloned from pcDNA3.1 into pcDNA5TO; expressed in transfected cells

B-Raf(V600E) [2] = molecular target: T1, B-Raf(V600E); assay: B-Raf(V600E)/MEK1(KD) cellular TR-FRET assay (double stable HEK293 T-Rex cells); type: cell-based; conditions: for IC50: B-Raf(V600E) TR-FRET, kinase-inactive MEK(KD) substrate, 384-well, ~2h compound treatment, SD in parentheses (n=4-6)
B-Raf(V600E) [3] = molecular target: T1, B-Raf(V600E); assay: B-Raf(V600E)/cSTKpep-3 cellular TR-FRET assay (double stable HEK293 T-Rex cells); type: cell-based; conditions: cSTKpep-3 substrate, ~2h compound treatment, SD in parentheses (n=4-6); for IC50: 384-well
AKT = molecular target: T2, AKT (Homo sapiens, UniProt P31749); assay: AKT/cSTKpep-3 cellular TR-FRET assay (transient, HEK293); type: cell-based; conditions: Fig. 7C; comparable potencies in both assays
T2 construct: expressed in transfected cells; host or cells: HEK293 (transient co-transfection)

[4] = tested on: AKT activation (Ser473 phosphorylation); assay: p-AKT(Ser473) cellular TR-FRET assay with His-tagged AKT (HEK293); type: cell-based, human; conditions: for observed potency (concentration range), AKT phosphorylation assay: Fig. 7B, comparable potencies in both assays
[5] = tested on: B-Raf(V600E)-Ba/F3 cell line; assay: B-Raf(V600E)-Ba/F3 proliferation assay (Cell-Titer-Glo); type: cell-based; conditions: 384-well, called historical data, SD in parentheses (n=4-6)
Experimental: The B-Raf(V600E)-Ba/F3 cell line was generously provided by Markus Warmuth (GNF). Ba/F3 cells were counted and diluted to a final concentration of 75,000 cells/ml in RPMI media and 50μl/well were plated into 384-well white solid bottom plates. 50nl of a 10mM compound stock in DMSO were pintool transferred followed by a 48h incubation time at 37°C for 48h. Finally, 25μl Cell-Titer-Glo (Promega) detection reagent was added each and luminescence read were taken on a […] (Molecular Devices Corp.) reader.

T1 sequence (P15056 whole entry V600E): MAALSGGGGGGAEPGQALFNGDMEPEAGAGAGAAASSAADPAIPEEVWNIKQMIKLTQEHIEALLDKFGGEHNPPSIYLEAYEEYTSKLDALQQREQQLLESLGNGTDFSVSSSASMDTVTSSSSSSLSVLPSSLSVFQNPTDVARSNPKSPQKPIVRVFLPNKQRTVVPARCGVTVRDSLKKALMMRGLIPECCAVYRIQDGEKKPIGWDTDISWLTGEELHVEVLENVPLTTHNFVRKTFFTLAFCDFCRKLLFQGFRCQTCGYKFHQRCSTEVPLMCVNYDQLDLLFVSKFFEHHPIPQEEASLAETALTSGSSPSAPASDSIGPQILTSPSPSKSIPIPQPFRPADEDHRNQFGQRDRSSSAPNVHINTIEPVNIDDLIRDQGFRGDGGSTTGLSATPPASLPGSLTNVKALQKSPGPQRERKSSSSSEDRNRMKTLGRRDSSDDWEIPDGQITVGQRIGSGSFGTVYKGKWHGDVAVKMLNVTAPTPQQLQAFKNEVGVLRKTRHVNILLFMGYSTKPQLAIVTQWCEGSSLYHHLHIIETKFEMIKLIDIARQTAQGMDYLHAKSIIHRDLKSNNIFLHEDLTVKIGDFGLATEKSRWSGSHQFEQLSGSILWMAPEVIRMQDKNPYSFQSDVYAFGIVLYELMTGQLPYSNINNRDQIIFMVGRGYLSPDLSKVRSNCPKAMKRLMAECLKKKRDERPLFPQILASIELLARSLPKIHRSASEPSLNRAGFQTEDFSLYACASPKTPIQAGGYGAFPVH
T2 sequence (P31749 whole entry): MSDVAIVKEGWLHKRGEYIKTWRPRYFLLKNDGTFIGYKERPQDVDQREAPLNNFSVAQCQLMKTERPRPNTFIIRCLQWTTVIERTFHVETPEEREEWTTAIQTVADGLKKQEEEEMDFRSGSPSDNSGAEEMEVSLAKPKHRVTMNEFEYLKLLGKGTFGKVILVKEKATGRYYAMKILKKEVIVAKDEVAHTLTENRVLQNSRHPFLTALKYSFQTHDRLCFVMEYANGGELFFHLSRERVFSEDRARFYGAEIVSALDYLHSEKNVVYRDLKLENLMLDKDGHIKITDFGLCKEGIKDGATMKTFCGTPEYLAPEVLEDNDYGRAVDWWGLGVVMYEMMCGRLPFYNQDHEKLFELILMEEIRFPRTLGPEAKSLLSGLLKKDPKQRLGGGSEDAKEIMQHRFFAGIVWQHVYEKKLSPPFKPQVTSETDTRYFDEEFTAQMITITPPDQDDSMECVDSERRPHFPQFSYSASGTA

SMILES	IC50 (B-Raf(V600E) [1])	IC50 MEK(WT) 384-well (B-Raf(V600E) [1])	IC50 (B-Raf(V600E) [2])	IC50 (B-Raf(V600E) [3])	IC50 cSTKpep-3 384-well (B-Raf(V600E) [3])	observed potency (concentration range), cSTKpep-3 phosphorylation assay (AKT)	observed potency (concentration range), AKT phosphorylation assay [4]	also measured
C[C@H](CCC(=O)O)C[C@H](C)C[C@H](C)C(=O)/C=C(\O)[C@H](C)C[C@H](C)C/C=C/[C@@H](C)[C@@H](O)[C@@H](C)[C@@H](O)C[C@@H]1CC[C@@](C)([C@H]2CC[C@@](C)([C@@H](C)O)O2)O1 [ionomycin]	–	–	–	–	–	–	–	induction of CamK2δ activity / cSTKpep-1 phosphorylation (CamK2δ): ionomycin inducible
O=c1cc(N2CCOCC2)oc2c(-c3ccccc3)cccc12 [LY294002, 2-(4-morpholinyl)-8-phenyl-4H-1-benzopyran-4-one]	> 33 µM	did not show any activity	> 33 µM	> 33 µM	did not show any activity	low micromolar	low micromolar	–
COC[C@H]1OC(=O)c2coc3c2[C@@]1(C)C1=C(C3=O)[C@@H]2CCC(=O)[C@@]2(C)C[C@H]1OC(C)=O [Wortmannin]	> 33 µM	did not show any activity	> 33 µM	> 33 µM	did not show any activity	low nanomolar	low nanomolar	–
O=C(NOC[C@H](O)CO)c1ccc(F)c(F)c1Nc1ccc(I)cc1F [PD0325901]	–	–	–	–	–	–	–	IC50 MEK(KD) 384-well (B-Raf(V600E) [2]): inactive; IC50 ([5]; Mus musculus, BaF3, 48h): […]
CN[C@@H]1C[C@H]2O[C@@](C)([C@@H]1OC)n1c3ccccc3c3c4c(c5c6ccccc6n2c5c31)C(=O)NC4 [Staurosporine]	–	–	–	–	–	–	–	factor between activity on p-AKT versus p-cSTKpep-3 ([4]; p-AKT IC50 versus p-cSTKpep-3 IC50): ~ 100 fold
